The values below come from patent US20240376113A1 (Volastra Therapeutics, Inc., priority 2020, published 2024).

Assay [1] has as its target ENPP1 on MDA-MB-231 cells (Homo sapiens (Human), UniProt P22413). Put plainly: Inhibition of ENPP1 hydrolysis of AMP p-nitrophenyl ester on MDA-MB-231 cells (Assay 2). The class given is cell-based. On the procedure:
Inhibition of ENPP1 Hydrolysis of AMP p-Nitrophenyl Ester on MDA-MB-231 Cells (Assay 2)
ENPP1 is normally expressed on the human metastatic breast cancer cell line MDA-MB-231. Hydrolysis of the p-nitrophenyl ester of AMP (pNP-AMP), an isostere of ATP, is selectively catalyzed by ENPP1 in the supernatant of MDA-MB-231 cell cultures. Inhibition of the hydrolysis of pNP-AMP by MDA-MB-231 at pH 7.4 and 37° C. is a good model of physiologically relevant activity of membrane-bound ENPP1 at disease-relevant expression levels.
MDA-MB-231 cells were harvested using TypLE Express Enzyme digestion and suspended in 100 μL of Leibovitz's L-15 Medium, 20% FBS, seeding the cells in a 96-well assay plate with 4.5×10^4 cells/well. Cells were incubated at 37 C with 1% CO2 for 24 h. In a separate dilution plate, 2× of top dose of compound was prepared in phenol-red free 1640 medium without FBS and then 1:3 serial diluted in the same medium. The cell culture medium of L15 medium was aspirated carefully and cells were washed with PBS once, and 50 μL per well of test compound or DMSO blank are added to the assay plate. Substrate mix (50 μL; 0.5 mM pNP-AMP in phenol-red free 1640 media without FBS) was added for a pNP-AMP final concentration of 0.25 mM. The system was incubated at 37° C. for 3 h.

For a further assay, the target named is ENPP-1 ECD (Homo sapiens (Human), UniProt P22413). Put plainly: Inhibition of ENPP1 hydrolysis of 2′,3′-cGAMP (Assay 1).
Chain of ENPP-1 ECD (P22413 98-925): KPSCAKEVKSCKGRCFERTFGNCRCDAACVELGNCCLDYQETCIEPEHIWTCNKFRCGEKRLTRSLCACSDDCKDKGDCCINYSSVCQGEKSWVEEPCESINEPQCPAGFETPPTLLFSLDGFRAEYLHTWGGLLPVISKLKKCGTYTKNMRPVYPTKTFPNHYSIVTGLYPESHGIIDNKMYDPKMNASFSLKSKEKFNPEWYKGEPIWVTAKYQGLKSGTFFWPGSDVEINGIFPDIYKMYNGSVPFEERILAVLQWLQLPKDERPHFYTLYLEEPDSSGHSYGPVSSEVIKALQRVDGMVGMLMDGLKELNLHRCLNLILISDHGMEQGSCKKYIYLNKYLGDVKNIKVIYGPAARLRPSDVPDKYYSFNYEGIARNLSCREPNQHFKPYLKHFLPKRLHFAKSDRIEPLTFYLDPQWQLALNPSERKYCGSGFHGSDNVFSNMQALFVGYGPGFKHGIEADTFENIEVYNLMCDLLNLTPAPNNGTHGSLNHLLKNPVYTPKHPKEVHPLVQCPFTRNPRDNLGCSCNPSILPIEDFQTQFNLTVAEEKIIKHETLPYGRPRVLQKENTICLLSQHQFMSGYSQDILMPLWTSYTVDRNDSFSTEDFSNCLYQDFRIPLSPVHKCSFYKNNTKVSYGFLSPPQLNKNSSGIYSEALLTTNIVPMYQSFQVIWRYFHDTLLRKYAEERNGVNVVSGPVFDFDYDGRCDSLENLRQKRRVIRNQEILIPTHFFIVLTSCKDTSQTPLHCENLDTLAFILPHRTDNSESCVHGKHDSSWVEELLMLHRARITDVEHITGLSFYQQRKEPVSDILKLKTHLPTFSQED
Where [2] appears, read: pNP-AMP 0.25 mM, MDA-MB-231 cells, 37° C. 3 h, KI,app from IC50 via Cheng/Prusoff, read-out: Assay 2 KI, app.
Where [3] appears, read: pNP-AMP 0.25 mM, MDA-MB-231 cells, 37° C. 3 h, KI,app from IC50 via Cheng/Prusoff, read-out: Assay 2 KI,app values (class).
Where [4] appears, read: read-out: Assay 1 KI values (class), 2,3-cGAMP 24 μM, AMP-Glo luminescence, KI from IC50 via Cheng/Prusoff.
The mark [5] stands for this setting: read-out: Assay 1 KI, 2,3-cGAMP 24 μM, AMP-Glo luminescence, KI from IC50 via Cheng/Prusoff.
[6] abbreviates: Assay 1 KI values (class), 2,3-cGAMP 24 μM, AMP-Glo luminescence, KI from IC50 via Cheng/Prusoff.

Like-named read-outs stand apart in the source and are kept apart here.

Chain of ENPP1 on MDA-MB-231 cells (P22413 whole entry): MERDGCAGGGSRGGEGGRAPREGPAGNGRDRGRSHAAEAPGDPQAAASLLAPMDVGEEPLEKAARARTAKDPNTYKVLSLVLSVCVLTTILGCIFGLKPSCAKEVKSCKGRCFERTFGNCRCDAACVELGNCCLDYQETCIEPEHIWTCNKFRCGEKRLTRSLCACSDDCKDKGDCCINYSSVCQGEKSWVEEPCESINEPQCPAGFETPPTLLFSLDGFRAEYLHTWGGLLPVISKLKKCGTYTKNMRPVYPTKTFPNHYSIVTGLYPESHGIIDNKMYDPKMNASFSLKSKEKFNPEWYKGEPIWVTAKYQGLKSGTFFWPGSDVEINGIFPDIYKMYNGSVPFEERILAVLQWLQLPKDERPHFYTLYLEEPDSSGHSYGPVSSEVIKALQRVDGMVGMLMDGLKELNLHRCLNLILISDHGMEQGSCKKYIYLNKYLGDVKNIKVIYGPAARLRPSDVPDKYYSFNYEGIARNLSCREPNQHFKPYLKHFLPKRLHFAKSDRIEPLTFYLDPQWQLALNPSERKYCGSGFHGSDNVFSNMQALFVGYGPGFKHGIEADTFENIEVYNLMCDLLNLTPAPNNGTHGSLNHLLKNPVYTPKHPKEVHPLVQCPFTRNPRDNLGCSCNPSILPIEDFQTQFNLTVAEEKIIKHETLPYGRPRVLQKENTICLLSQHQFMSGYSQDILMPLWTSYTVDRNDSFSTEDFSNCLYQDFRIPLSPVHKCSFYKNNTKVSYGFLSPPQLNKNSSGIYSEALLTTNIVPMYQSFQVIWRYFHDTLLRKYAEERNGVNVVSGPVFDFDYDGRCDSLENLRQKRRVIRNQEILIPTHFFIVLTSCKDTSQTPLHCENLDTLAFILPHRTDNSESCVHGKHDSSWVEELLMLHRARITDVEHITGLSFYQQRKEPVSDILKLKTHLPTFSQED
Experimental for ENPP-1 ECD: Test compounds were plated in a 3× dilution scheme in a 384 well plate.

Turning to `Cc1nc2ncnn2c(N(C)C)c1Cc1ccc([S@@](C)(=N)=O)cc1` (single isomer, unassigned) [Compound 1b], the Ki is 1.67 nM in assay [1] (setting [2]), under 10 nM in assay [1] (setting [3]), under 3 nM on ENPP-1 ECD (setting [4]) and 0.015 nM on ENPP-1 ECD (setting [5]).

Consider `Cc1cc2ncnn2c(N(C)C)c1Cc1ccc(S(=N)(=O)CCC(=O)O)cc1` (centres unmarked) [Compound 87, 3-[(4-{[5-(dimethylamino)-7-methyl-[1,2,4]triazolo[1,5-a]pyridin-6-yl]methyl}phenyl)(imino)oxo-λ^6-sulfanyl]propanoic acid], for which the values for the Ki (in assay [1] (setting [2]); on ENPP-1 ECD (setting [5])) were 0.447 nM and 0.0184 nM, respectively.

Take `Cc1cc2ncnn2c(N(C)C)c1Cc1ccc([S@](C)(=N)=O)cc1` (single isomer, unassigned) [Compound 28a]: the Ki in assay [1] (setting [2]) was 0.56 nM; in assay [1] (setting [3]), under 10 nM; at ENPP-1 ECD (setting [4]), under 3 nM; on ENPP-1 ECD (setting [5]) it was 0.00806 nM.

For `Cc1nc2ncnn2c(N2CCCC2)c1Cc1ccc(C(=O)NO)cc1` [Compound 82, N-hydroxy-4-{[5-methyl-7-(pyrrolidin-1-yl)-[1,2,4]triazolo[1,5-a]pyrimidin-6-yl]methyl}benzamide], the Ki in assay [1] (setting [2]) is 69.9 nM; in assay [1] (setting [3]), over 10 nM; at ENPP-1 ECD (setting [6]), under 3 nM; at ENPP-1 ECD (setting [5]), 1.16 nM.

As to `CCS(=N)(=O)c1ccc(Cc2c(C)nc3ncnn3c2N(C)C)cc1` (centres unmarked) [Compound 57, (4-{[7-(dimethylamino)-5-methyl-[1,2,4]triazolo[1,5-a]pyrimidin-6-yl]methyl}phenyl)(ethyl)imino-λ^6-sulfanone], the Ki in assay [1] (setting [2]) is 9.59 nM; in assay [1] (setting [3]) it was under 10 nM; on ENPP-1 ECD (setting [6]), under 3 nM.

Consider `Cc1nc2nccn2c(N(C)C)c1Cc1ccc([S@](C)(=N)=O)cc1` [Compound 29a], for which the Ki in assay [1] (setting [2]) was 3.15 nM; in assay [1] (setting [3]) it was under 10 nM; at ENPP-1 ECD (setting [4]), under 3 nM; on ENPP-1 ECD (setting [5]) it was 0.106 nM.

For the compound `Cc1nc2ncnn2c(N2CCCCC2)c1Cc1ccc([S@](C)(=N)=O)cc1` [Compound 16a], the Ki was 11.9 nM in assay [1] (setting [2]), over 10 nM in assay [1] (setting [3]), under 3 nM at ENPP-1 ECD (setting [4]) and 0.0627 nM at ENPP-1 ECD (setting [5]).

For the compound `Cc1nc2ncnn2c(N(C)C)c1Cc1ccc(S(N)(=O)=O)cc1` [Compound 2, 4-((7-(dimethylamino)-5-methyl-[1,2,4]triazolo[1,5-a]pyrimidin-6-yl)methyl)benzenesulfonamide], the Ki in assay [1] (setting [2]) was 14.4 nM; in assay [1] (setting [3]) it was over 10 nM; at ENPP-1 ECD (setting [6]), under 3 nM; on ENPP-1 ECD (setting [5]) it was 0.158 nM.

For the compound `Cc1nc2ncnn2c(N(C)C)c1Cc1ccc(S(C)(=N)=O)cc1` (centres unmarked) [Compound 1, (4-((7-(dimethylamino)-5-methyl-[1,2,4]triazolo[1,5-a]pyrimidin-6-yl)methyl)phenyl)(imino)(methyl)-λ^6-sulfanone], the Ki is 7.47 nM in assay [1] (setting [2]), under 10 nM in assay [1] (setting [3]), under 3 nM at ENPP-1 ECD (setting [6]) and 0.109 nM at ENPP-1 ECD (setting [5]).

On to `Cc1nc2ncnn2c(N(C)C)c1Cc1ccc(S(=N)(=O)CCN)cc1` (centres unmarked) [Compound 73, (2-aminoethyl)(4-{[7-(dimethylamino)-5-methyl-[1,2,4]triazolo[1,5-a]pyrimidin-6-yl]methyl}phenyl)imino-λ^6-sulfanone], for which the Ki is 7.7 nM in assay [1] (setting [2]), under 10 nM in assay [1] (setting [3]) and under 3 nM on ENPP-1 ECD (setting [6]).

For `Cc1c(Cc2ccc([S@@](C)(=N)=O)cc2)c(N(C)C)n2ccnc2c1C#N` [Compound 80a], the Ki was 0.589 nM in assay [1] (setting [2]), under 10 nM in assay [1] (setting [3]), under 3 nM on ENPP-1 ECD (setting [4]) and 0.016 nM on ENPP-1 ECD (setting [5]).

Consider `Cc1nc2ncnn2c(N2CCCC2)c1Cc1ccc(S(C)(=N)=O)cc1` (centres unmarked) [Compound 8, imino(methyl)(4-((5-methyl-7-(pyrrolidin-1-yl)-[1,2,4]triazolo[1,5-a]pyrimidin-6-yl)methyl)phenyl)-λ^6-sulfanone], for which the Ki in assay [1] (setting [2]) was 7.79 nM; in assay [1] (setting [3]), under 10 nM; at ENPP-1 ECD (setting [6]), under 3 nM; on ENPP-1 ECD (setting [5]), 0.0718 nM.

With `Cc1c(Cc2ccc([S@@](C)(=N)=O)cc2)c(N(C)C)n2ncnc2c1C#N` (single isomer, unassigned) [Compound 85a], the Ki in assay [1] (setting [2]) amounted to 0.298 nM; at ENPP-1 ECD (setting [5]), 0.00604 nM.

As for `Cc1nc2ncnn2c(N2CCCC2)c1Cc1ccc(P(=O)(O)O)cc1` [Compound 36, (4-{[5-methyl-7-(pyrrolidin-1-yl)-[1,2,4]triazolo[1,5-a]pyrimidin-6-yl]methyl}phenyl)phosphonic acid], the Ki in assay [1] (setting [2]) was 5.68 nM; in assay [1] (setting [3]), under 10 nM; on ENPP-1 ECD (setting [6]), under 3 nM; on ENPP-1 ECD (setting [5]), 0.512 nM.

Turning to `Cc1nc2ncnn2c(N(C)C)c1Cc1ccc([S@@](C)(=N)=O)cc1` (single isomer, unassigned) [Compound 49a], the Ki in assay [1] (setting [2]) was 1.59 nM; in assay [1] (setting [3]), under 10 nM; on ENPP-1 ECD (setting [4]), under 3 nM; on ENPP-1 ECD (setting [5]), 0.0236 nM.

As for `CN(C)c1c(Cc2ccc(S(C)(=N)=O)cc2)c(C2CC2)nc2ncnn12` (centres unmarked) [Compound 53, (4-{[5-cyclopropyl-7-(dimethylamino)-[1,2,4]triazolo[1,5-a]pyrimidin-6-yl]methyl}phenyl)(imino)methyl-λ^6-sulfanone], the Ki was 1.11 nM in assay [1] (setting [2]), under 10 nM in assay [1] (setting [3]) and under 3 nM at ENPP-1 ECD (setting [6]).

`CN(C)c1c(Cc2ccc([S@@](C)(=N)=O)cc2)c(Cl)nc2ncnn12` [Compound 74a]: the Ki in assay [1] (setting [2]) is 1.34 nM; in assay [1] (setting [3]), under 10 nM; at ENPP-1 ECD (setting [4]) it was under 3 nM; on ENPP-1 ECD (setting [5]), 0.0523 nM.

For `Cc1nc2ncnn2c(N(C)C)c1Cc1ccc(S(=N)(=O)CCO)cc1` (centres unmarked) [Compound 59, (4-{[7-(dimethylamino)-5-methyl-[1,2,4]triazolo[1,5-a]pyrimidin-6-yl]methyl}phenyl)(2-hydroxyethyl)imino-λ^6-sulfanone], the Ki in assay [1] (setting [2]) is 11.5 nM; in assay [1] (setting [3]) it was over 10 nM; at ENPP-1 ECD (setting [6]), under 3 nM.

Turning to `Cc1c(Cc2ccc(S(C)(=N)=O)cc2)c(N(C)C)n2ncnc2c1C#N` (centres unmarked) [Compound 85, 5-(dimethylamino)-6-({4-[imino(methyl)oxo-λ^6-sulfanyl]phenyl}methyl)-7-methyl-[1,2,4]triazolo[1,5-a]pyridine-8-carbonitrile], the Ki in assay [1] (setting [2]) was determined as 0.724 nM; on ENPP-1 ECD (setting [5]) it was 0.0287 nM.

For `Cc1cc2ncnn2c(N2CCCCC2)c1Cc1ccc(S(C)(=N)=O)cc1` (centres unmarked) [Compound 76, imino(methyl)(4-{[7-methyl-5-(piperidin-1-yl)-[1,2,4]triazolo[1,5-a]pyridin-6-yl]methyl}phenyl)-λ^6-sulfanone], the Ki in assay [1] (setting [2]) was 38.6 nM; in assay [1] (setting [3]), over 10 nM; at ENPP-1 ECD (setting [6]), under 3 nM.

Consider `Cc1nc2ncnn2c(N(C)C)c1Cc1ccc([S@@](=N)(=O)CCC(=O)O)cc1` [Compound 72a], for which the Ki in assay [1] (setting [2]) worked out at 0.505 nM; on ENPP-1 ECD (setting [5]) it was 0.00881 nM.

`Cc1nc2ncnn2c(N(C)C)c1Cc1cccc(N)c1`: the Ki in assay [1] came out at 1400 nM; at ENPP-1 ECD it was 110 nM.

For `Cc1c(Cc2ccc(S(C)(=N)=O)cc2)c(N(C)C)n2ccnc2c1C#N` (centres unmarked) [Compound 80, 5-(dimethylamino)-6-({4-[imino(methyl)oxo-λ^6-sulfanyl]phenyl}methyl)-7-methylimidazo[1,2-a]pyridine-8-carbonitrile], the Ki in assay [1] (setting [2]) is 2.54 nM; in assay [1] (setting [3]), under 10 nM; on ENPP-1 ECD (setting [6]) it was under 3 nM; at ENPP-1 ECD (setting [5]) it was 0.0443 nM.
